Measurements as given in patent US4497812A, “2-Amino-5-aminomethyl-2-oxazolines, compositions and use” (Societe Cortial, S.A., priority 1982, dated 1985).
Where two headings read alike, the source gives them in different places.

Columns and labels:
rats [1] = experiment: antiallergic activity, cutaneous passive anaphylaxis test; format: in vivo
Experimental: The antiallergic activity was determined in rats in the cutaneous passive anaphylaxis test. The animals sensitized by an intradermic injection of IgE immediately received, after administration of the product to be tested, an intravenous injection of ovalbumin and Evans blue. The products of Examples 3 and 4 caused, at 10 mg/kg, 53 and 60% respectively inhibition of the Evans blue spot.

[2] = system: right auricle of a guinea pig stimulated electrically; experiment: positive inotropic activity in vitro; format: cell-based; conditions: Cavia porcellus; 100 microg/ml; read-out: increase of the auricle contractile force
Experimental: The positive inotropic activity was determined in vitro on the right auricle of a guinea pig stimulated electrically.

in vivo = conditions: mouse, mice, read-out: Percentage of mortality
Experimental: The toxicity was determined in mice for various ways of administraion.

[3] = system: right auricle of a guinea pig beating spontaneously; experiment: antihistaminic activity antiH2 in vitro, histamine-induced chronotropic effect; format: cell-based; conditions: for intrinsic chronotropic effect / inhibition at 100 µg/mL: 100 microg/ml
Experimental: Antihistaminic activity antiH2 was determined in vitro on the right auricle of a guinea pig beating spontaneously.

rats [4] = experiment: diuretic activity, sodium excretion; format: in vivo; conditions: 20 mg/kg per os
Experimental: The diuretic activity was determined in rats subjected to a hydric regimen and evaluated by the ratio of sodium excreted in the treated animals to the sodium excreted in control animals. The products of Examples 3 and 7 multiplied the sodium excretion by 4.2 and 4.9 respectively at a dose of 20 mg/kg per os.

mice = experiment: hypocholesterolemic activity, regimen rich in cholesterol and cholic acid; format: in vivo; conditions: 400 mg/kg per os
Experimental: The hypocholesterolemic activity was determined in mice subjected to a regimen rich in cholesterol and cholic acid for 7 days. After administration per os of the production of Example 6 in a dose of 400 mg/kg, a 21% reduction of cholesterolemia was noted on the 6th and 7th days. This drop in cholesterolemia was accompanied by a 20% reduction of the […] fraction, the HDL/cholesterol ratio being equal to 1.01.

rats [5] = experiment: stress ulcer test; format: in vivo; conditions: 25 mg/kg per os
Source text: The antiulcerigenic activity was shown in the stress ulcer test.

guinea pig ileum [6] = experiment: antihistaminic activity antiH1 in vitro, contractions induced by histamine; format: cell-based; conditions: Cavia porcellus
Experimental: The antihistaminic activity antiH1 was determined in vitro on guinea pig ileum.

rats [7] = experiment: carrageenan edema test; format: in vivo; conditions: 100 mg/kg per os, after 4 hours
Source text: The antiinflammatory activity was brought out in the carrageenan edema test in rats.

ulcerigenic effect = format: in vivo; conditions: 200 mg/kg per os
guinea pig ileum [8] = experiment: contractions induced by serotinin in vitro; format: cell-based; conditions: Cavia porcellus; 25 microg/ml
[9] = system: spontaneously hypertensive rat; experiment: spontaneously hypertensive rat, systolic pressure; format: in vivo; conditions: orally 100 mg/kg
Experimental: In the model of the spontaneously hypertensive rat, the product of Example 13, administered orally in a dose of 100 mg/kg, caused a drop in systolic pressure of 14 and 15% respectively after two and four hours. The product of Example 14, administered in a dose of 100 mg/kg under the same conditions, caused a reduction of 21% of the systolic pressure after six hours.

[10] = ip, intraperitoneally 200 mg/kg
[11] = Cavia porcellus, 5 microg/ml of histamine
[12] = ip, intraperitoneally 100 mg/kg

SMILES | mortality (in vivo; [10]) [%] | mortality (in vivo; po, orally 300 mg/kg) [%] | inhibition at 100 µg/mL [3, 11] [%] | mortality (in vivo; [12]) [%] | other results
CCN(CC)CC1CN=C(N)O1 (stereo not shown) [Example 1, 2-amino-N,N-5-diethylaminomethyl-2-oxazoline] | 0 | 0 | > 50 | – | inhibition of the Evans blue spot (rats [1]; 100 mg/kg per os): 60%; activation at 100 µg/mL [2]: 100%; intrinsic chronotropic effect [3]: without exhibiting intrinsic chronotropic effect
CCCCN(C)CC1CN=C(N)O1 (stereo not shown) [Example 2, 2-amino-5-(N-butyl-N-methylaminomethyl)-2-oxazoline] | 100 | 0 | > 50 | 0 | intrinsic chronotropic effect [3]: without exhibiting intrinsic chronotropic effect
NC1=NCC(CN2CCCC2)O1 (stereo not shown) [Example 3, 2-amino-5-pyrrolidinomethyl-2-oxazoline] | 100 | 0 | – | 0 | inhibition of the Evans blue spot (rats [1]; 10 mg/kg): 53%; sodium excretion multiplied by (ratio treated to control animals) (rats [4]): 4.2
NC1=NCC(CN2CCCCC2)O1 (stereo not shown) [Example 4, 2-amino-5-piperidinomethyl-2-oxazoline] | 100 | 33 | – | 0 | inhibition of the Evans blue spot (rats [1]; 10 mg/kg): 60%; mortality (in vivo; po, orally 200 mg/kg): 0%
CC1CCN(CC2CN=C(N)O2)CC1 (stereo not shown) [Example 5, 2-amino-5-(4-methylpiperidinomethyl)-2-oxazoline] | 100 | 0 | – | 0 | –
CCC1CCCCN1CC1CN=C(N)O1 (stereo not shown) [Example 6, 2-amino-5-(2-ethylpiperidinomethyl)-2-oxazoline] | 0 | 0 | > 50 | – | intrinsic chronotropic effect [3]: without exhibiting intrinsic chronotropic effect; HDL/cholesterol ratio (mice): 1.01; reduction of the HDL-VLDL fraction (mice): 20%; reduction of cholesterolemia (mice; 6th and 7th days): 21%
NC1=NCC(CN2CCOCC2)O1 (stereo not shown) [Example 7, 2-amino-5-morpholinomethyl-2-oxazoline] | – | 100 | – | – | sodium excretion multiplied by (ratio treated to control animals) (rats [4]): 4.9
CN1CCN(CC2CN=C(N)O2)CC1 (stereo not shown) [Example 10, 2-amino-(4-methylpiperazinyl)-5-methyl-2-oxazoline] | 0 | 0 | – | – | –
NC1=NCC(CN2CCN(c3ccccc3)CC2)O1 (stereo not shown) [Example 11] | – | – | – | – | inhibition of the stress ulcer (rats [5]): 88%; inhibition at 25 µg/mL (guinea pig ileum [6]; 25 microg/ml): > 80%; inhibition of carrageenan edema (rats [7]): 35%; ulcerigenic effect (ulcerigenic effect): very slightly ulcerigenic; inhibition at 25 µg/mL (guinea pig ileum [8]): 80%
NC1=NCC(CN2CCC(Cc3ccccc3)CC2)O1 (stereo not shown) [Example 12] | 100 | 100 | – | 0 | mortality (in vivo; po, orally 100 mg/kg (footnote 1)): 0%
NC1=NCC(CN2CCN(Cc3ccccc3)CC2)O1 (stereo not shown) [Example 13] | 100 | 0 | > 50 | 0 | inhibition at 100 µg/mL (guinea pig ileum [6]; 100 microg/ml): > 80%; drop in systolic pressure ([9]; after four hours): 15%; drop in systolic pressure ([9]; after two hours): 14%
C=CCN1CCN(CC2CN=C(N)O2)CC1 (stereo not shown) [Example 14] | 0 | 0 | – | – | reduction of the systolic pressure ([9]; after six hours): 21%; inhibition at 50 µg/mL ([3]; Cavia porcellus, 50 microg/ml, 5 microg/ml of histamine): > 50%
